Laboratory results reported in PubChem BioAssay (NCI).
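GI50 is the concentration that inhibits growth by half. TGI marks complete inhibition of growth.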

Experiments:
Experiment in all cases: DTP human tumour cell line panel, 384-well format
[1] = test system: MOLT-4 leukemia
[2] = test system: SN12C renal
[3] = test system: UO-31 renal
[4] = test system: LOX IMVI melanoma
[5] = test system: SR leukemia
[6] = test system: EKVX NSCLC
[7] = test system: HCT-15 colon
[8] = test system: SW-620 colon
[9] = test system: HOP-62 NSCLC
[10] = test system: KM12 colon
[11] = test system: IGROV1 ovarian
[12] = test system: PC-3 prostate
[13] = test system: K-562 leukemia

Structure (SMILES)	GI50 [1] [µM]	TGI [1] [µM]	GI50 [2] [µM]	TGI [2] [µM]	GI50 [3] [µM]	TGI [3] [µM]	GI50 [4] [µM]	TGI [4] [µM]	TGI [5] [µM]	GI50 [6] [µM]	TGI [6] [µM]	GI50 [7] [µM]	TGI [7] [µM]	GI50 [8] [µM]	TGI [8] [µM]	GI50 [9] [µM]	TGI [9] [µM]	GI50 [10] [µM]	TGI [10] [µM]	GI50 [11] [µM]	further results
Cn1cc(-c2ccc(-c3cncc(Cl)c3N3CCC4(CCNC4=O)CC3)cc2)cn1	6.92	24.2	45.2	> 100	26.9	> 100	29.5	> 75.1	0.485	20.8	78.8	14.6	> 66.4	12.3	> 86.5	15.2	39.9	21.3	> 94.3	25.2	TGI [11]: > 100 µM; GI50 [12]: 26.3 µM; TGI [12]: > 100 µM; GI50 [13]: 19 µM; TGI [13]: > 100 µM
COc1ccc2c(Oc3ccc(NC(=O)c4c(C)n(CC(C)(C)O)n(-c5ccccc5)c4=O)nc3)ccnc2c1	3.58	12.4	2.24	86.8	18.4	> 100	47.2	> 100	19	37.3	> 100	6.05	> 100	56.2	> 100	15.3	> 100	0.73	> 100	9.46	GI50 [5]: 6.58 µM; TGI [11]: > 100 µM; GI50 [12]: 18.5 µM; TGI [12]: > 100 µM; GI50 [13]: 1.16 µM; TGI [13]: 2.51 µM
